The record followed here is patent publication US9592221B2, “Antibacterial agents: aryl myxopyronin derivatives” (priority 2012, dated 2017).

The subject of assay [1] is Acinetobacter baumannii ATCC 19606. The assay is described as follows: MIC, spiral gradient endpoint assay, A. baumannii. Format: cell-based.
Assay [2] relates to methicillin-resistant Staphylococcus aureus (MRSA) strain BAA-1707 (USA-400; MW2). The assay is described as follows: MIC, spiral gradient endpoint assay, MRSA BAA-1707. The format is cell-based.
Assay [3] relates to rifampin-resistant Staphylococcus aureus (RRSA) strain ATCC 12600-Rif (H526N). In words: MIC, spiral gradient endpoint assay, RRSA 12600-Rif. The format is cell-based.
In assay [4] the target is M. tuberculosis RNA polymerase core enzyme, M. tuberculosis σ^A (Mycobacterium tuberculosis, UniProt P9WGY7+P9WGY9). The assay is described as follows: Fluorescence-detected RNA polymerase assay, M. tuberculosis RNA polymerase. The settings on record: read-out: IC50 M. tuberculosis RNAP. The format is biochemical.
Assay [5] deals with Yersinia pestis C092. In words: microbe, parasite or virus in culture. The format is cell-based.
The subject of assay [6] is Staphylococcus aureus ATCC 12600. The assay is described as follows: MIC, spiral gradient endpoint assay, S. aureus ATCC 12600. Format: cell-based. The settings on record: Staphylococcus aureus, ATCC12600.
Assay [7] concerns vancomycin-intermediate Staphylococcus aureus (VISA) strain NRS 1. The assay is described as follows: MIC, spiral gradient endpoint assay, VISA NRS 1. Format: cell-based.
The subject of assay [8] is Mycobacterium tuberculosis H37Rv. In words: MIC, microplate Alamar Blue assay, M. tuberculosis. Format: cell-based. In general terms: Resazurin is reduced to fluorescent resorufin, in cell work by metabolically active cells.
For assay [9], the target named is S. aureus RNA polymerase core enzyme, S. aureus σ^A (Staphylococcus aureus, UniProt P47768+Q2G0N5). In words: Fluorescence-detected RNA polymerase assay, S. aureus RNA polymerase. The settings on record: read-out: IC50 S. aureus RNAP. The format is biochemical.
The test system of assay [10] is methicillin-resistant Staphylococcus aureus (MRSA) strain BAA-1707 (USA-400, MW2). In words: Antibacterial efficacy in mouse model of Staphylococcus aureus systemic infection (peritonitis model). Format: in vivo, Swiss Webster mice. The settings on record: mice.
The test system of assay [11] is Burkholderia pseudomallei Human/Blood/OH/US/1994. The assay is described as follows: microbe, parasite or virus in culture. The format is cell-based.
In assay [12] the test system is Francisella tularensis SCHU4. The assay is described as follows: microbe, parasite or virus in culture. The format is cell-based.
Assay [13] concerns Brucella melitensis 16M. In words: microbe, parasite or virus in culture. The format is cell-based.
The subject of assay [14] is Bacillus anthracis Vollum 1b. In words: microbe, parasite or virus in culture. The format is cell-based.
For assay [15], the system named is Escherichia coli D21f2tolC. In words: MIC, spiral gradient endpoint assay, E. coli D21f2tolC. Format: cell-based. The settings on record: Escherichia coli D21f2tolC.
The test system of assay [16] is Burkholderia mallei CHN7. The assay is described as follows: microbe, parasite or virus in culture. Format: cell-based.
Assay [17] relates to methicillin-resistant Staphylococcus aureus (MRSA) strain BAA-1717 (USA-300). The assay is described as follows: MIC, spiral gradient endpoint assay, MRSA BAA-1717. The format is cell-based.
Assay [18] relates to linezolid-resistant Staphylococcus aureus (LRSA) strain NRS 120. The assay is described as follows: MIC, spiral gradient endpoint assay, LRSA NRS 120. Format: cell-based.
For assay [19], the target named is E. coli RNA polymerase σ^70 holoenzyme (Escherichia coli, UniProt P0A8T7+P0A8V2). The assay is described as follows: Fluorescence-detected RNA polymerase assay, E. coli RNA polymerase. The settings on record: read-out: IC50 E. coli RNAP. The format is biochemical.
Sequence of E. coli RNA polymerase σ^70 holoenzyme (P0A8T7 whole entry): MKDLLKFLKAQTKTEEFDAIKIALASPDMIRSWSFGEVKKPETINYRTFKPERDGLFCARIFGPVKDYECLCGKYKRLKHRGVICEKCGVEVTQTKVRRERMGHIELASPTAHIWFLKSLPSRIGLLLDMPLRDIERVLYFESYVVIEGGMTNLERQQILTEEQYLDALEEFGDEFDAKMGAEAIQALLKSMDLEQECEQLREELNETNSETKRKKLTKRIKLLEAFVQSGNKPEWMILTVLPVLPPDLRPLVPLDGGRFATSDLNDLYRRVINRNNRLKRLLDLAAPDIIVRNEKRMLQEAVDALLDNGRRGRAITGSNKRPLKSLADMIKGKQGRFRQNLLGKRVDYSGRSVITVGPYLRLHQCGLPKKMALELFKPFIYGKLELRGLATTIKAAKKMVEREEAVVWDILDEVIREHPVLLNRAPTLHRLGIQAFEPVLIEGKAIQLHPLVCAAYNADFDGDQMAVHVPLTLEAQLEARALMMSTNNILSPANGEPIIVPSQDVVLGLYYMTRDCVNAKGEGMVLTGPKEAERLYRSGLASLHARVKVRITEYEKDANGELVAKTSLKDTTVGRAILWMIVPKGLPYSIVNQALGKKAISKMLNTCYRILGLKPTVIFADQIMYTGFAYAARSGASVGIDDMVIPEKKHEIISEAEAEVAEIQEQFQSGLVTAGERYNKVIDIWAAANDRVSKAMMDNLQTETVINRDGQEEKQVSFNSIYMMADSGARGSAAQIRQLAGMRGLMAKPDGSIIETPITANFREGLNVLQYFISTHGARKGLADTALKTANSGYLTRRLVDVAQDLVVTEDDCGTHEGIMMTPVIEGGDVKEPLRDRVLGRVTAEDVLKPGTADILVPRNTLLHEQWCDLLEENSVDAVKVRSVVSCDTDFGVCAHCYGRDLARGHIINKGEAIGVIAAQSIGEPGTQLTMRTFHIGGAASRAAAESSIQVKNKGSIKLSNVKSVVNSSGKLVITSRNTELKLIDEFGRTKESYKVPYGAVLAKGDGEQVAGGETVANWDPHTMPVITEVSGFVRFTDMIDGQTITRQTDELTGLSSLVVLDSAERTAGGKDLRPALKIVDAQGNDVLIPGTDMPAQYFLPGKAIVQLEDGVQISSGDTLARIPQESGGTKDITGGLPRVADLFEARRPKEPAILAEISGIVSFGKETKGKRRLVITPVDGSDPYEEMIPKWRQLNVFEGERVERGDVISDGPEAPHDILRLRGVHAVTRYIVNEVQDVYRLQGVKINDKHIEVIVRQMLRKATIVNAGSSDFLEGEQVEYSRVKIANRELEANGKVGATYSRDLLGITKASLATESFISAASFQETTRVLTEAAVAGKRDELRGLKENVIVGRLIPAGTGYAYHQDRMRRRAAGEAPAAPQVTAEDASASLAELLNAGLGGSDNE
Sequence of E. coli RNA polymerase σ^70 holoenzyme (P0A800 whole entry, further chain): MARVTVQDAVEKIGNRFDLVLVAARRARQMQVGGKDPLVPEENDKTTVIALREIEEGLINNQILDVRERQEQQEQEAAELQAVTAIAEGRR
Sequence of E. coli RNA polymerase σ^70 holoenzyme (P0A8V2 whole entry): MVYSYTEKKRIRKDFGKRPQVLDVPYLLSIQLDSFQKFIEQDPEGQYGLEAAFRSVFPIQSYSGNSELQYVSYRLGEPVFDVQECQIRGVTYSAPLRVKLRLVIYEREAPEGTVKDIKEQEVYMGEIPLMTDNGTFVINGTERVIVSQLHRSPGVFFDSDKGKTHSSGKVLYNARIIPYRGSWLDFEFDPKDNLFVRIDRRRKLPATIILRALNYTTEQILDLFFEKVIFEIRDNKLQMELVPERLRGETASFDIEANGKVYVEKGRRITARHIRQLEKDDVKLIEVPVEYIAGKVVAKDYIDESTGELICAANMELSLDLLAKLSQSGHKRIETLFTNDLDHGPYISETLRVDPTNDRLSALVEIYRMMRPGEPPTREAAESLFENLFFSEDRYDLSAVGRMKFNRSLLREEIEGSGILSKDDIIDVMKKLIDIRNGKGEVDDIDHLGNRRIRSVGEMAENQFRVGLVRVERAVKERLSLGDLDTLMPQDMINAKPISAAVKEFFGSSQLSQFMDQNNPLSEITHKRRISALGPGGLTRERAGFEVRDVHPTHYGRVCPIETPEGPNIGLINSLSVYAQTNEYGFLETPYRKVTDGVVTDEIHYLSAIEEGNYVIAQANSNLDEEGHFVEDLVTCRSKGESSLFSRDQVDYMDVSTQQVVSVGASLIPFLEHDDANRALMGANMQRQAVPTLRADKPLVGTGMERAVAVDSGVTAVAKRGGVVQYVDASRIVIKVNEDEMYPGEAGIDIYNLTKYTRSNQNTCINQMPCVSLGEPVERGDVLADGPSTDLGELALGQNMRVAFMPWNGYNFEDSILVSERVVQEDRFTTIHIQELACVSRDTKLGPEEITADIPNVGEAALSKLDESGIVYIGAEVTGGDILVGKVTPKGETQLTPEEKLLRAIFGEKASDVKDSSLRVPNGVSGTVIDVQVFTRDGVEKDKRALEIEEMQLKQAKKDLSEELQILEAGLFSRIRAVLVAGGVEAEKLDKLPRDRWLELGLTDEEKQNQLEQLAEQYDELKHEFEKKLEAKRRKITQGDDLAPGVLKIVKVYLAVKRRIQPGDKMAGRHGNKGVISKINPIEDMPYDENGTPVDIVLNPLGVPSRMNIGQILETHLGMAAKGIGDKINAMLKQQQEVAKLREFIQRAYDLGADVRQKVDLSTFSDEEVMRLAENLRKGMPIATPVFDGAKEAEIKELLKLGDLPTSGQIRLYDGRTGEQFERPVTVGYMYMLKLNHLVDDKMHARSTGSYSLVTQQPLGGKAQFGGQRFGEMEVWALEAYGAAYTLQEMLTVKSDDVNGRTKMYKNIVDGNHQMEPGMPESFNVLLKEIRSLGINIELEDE
Sequence of E. coli RNA polymerase σ^70 holoenzyme (P00579 whole entry, further chain): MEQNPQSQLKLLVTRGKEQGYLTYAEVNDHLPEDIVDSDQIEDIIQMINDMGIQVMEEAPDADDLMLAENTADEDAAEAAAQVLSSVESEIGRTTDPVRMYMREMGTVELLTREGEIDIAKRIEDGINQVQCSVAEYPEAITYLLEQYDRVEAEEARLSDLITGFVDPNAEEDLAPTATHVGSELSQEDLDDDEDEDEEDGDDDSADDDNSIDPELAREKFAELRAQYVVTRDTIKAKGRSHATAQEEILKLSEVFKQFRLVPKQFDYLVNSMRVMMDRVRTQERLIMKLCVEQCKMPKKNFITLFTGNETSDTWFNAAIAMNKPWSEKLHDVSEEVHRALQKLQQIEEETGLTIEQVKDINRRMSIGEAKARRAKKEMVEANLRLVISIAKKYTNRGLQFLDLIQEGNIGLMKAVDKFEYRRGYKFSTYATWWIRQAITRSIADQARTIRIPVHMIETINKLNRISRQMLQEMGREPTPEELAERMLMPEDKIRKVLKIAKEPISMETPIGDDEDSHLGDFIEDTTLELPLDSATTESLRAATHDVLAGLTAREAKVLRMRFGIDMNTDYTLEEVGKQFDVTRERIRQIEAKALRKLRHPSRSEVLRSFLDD
Sequence of E. coli RNA polymerase σ^70 holoenzyme (P0A7Z4 whole entry, further chain): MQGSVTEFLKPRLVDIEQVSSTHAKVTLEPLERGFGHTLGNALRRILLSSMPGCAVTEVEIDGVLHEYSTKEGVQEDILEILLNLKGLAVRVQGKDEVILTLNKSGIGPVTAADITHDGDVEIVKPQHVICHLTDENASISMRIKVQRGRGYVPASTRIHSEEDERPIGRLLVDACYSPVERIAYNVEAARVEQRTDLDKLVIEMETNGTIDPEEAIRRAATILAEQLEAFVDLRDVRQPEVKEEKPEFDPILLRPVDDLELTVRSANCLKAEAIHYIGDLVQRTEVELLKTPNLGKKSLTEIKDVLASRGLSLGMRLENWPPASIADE

The structures appear in SMILES notation. In brackets after ≈: the same amount, converted by molar mass.

As for `CCCC/C(C)=C/C=C(\C)C(=O)c1c(O)cc([C@H](C)CC/C=C/NC(=O)OC)oc1=O` [Myx B, myxopyronin B, reference compound], the “inhibition of Acinetobacter baumannii (in words)” value in [1] is given as “does not inhibit”. Besides, the “MIC A. baumannii 19606” value in assay [1] (Acinetobacter baumannii ATCC 19606) was greater than 40 µg/mL. Further, in [2], the “MIC S. aureus MRSA BAA-1707” value was 0.9 µg/mL (≈ 2.09 µM). The “MIC S. aureus RRSA 12600-Rif” value in assay [3] came out at 1 µg/mL (≈ 2.32 µM). Further, the half-inhibitory concentration (IC50) – broadly, the point on the concentration scale where inhibition reaches its midpoint – in assay [4] is 100 nM; in assay [9] it was 70 nM; in assay [19], 10 nM. Also, the “MIC Y. pestis C092” value in assay [5] was 50 µg/mL (≈ 116 µM). In addition, in [6], the “MIC S. aureus 12600” value came to 0.8 µg/mL (≈ 1.85 µM). Besides, in [7], the “MIC S. aureus VISA NRS1” value turned out to be 0.5 µg/mL (≈ 1.16 µM). The “MIC M. tuberculosis H37Rv” value in assay [8] turned out to be 2 µg/mL (≈ 4.63 µM). In addition, the PD50 in assay [10] (intravenous administration 0 h post-infection) worked out at 20 mg/kg; in assay [10] (oral administration 1 h pre-infection), 50 mg/kg. Besides, in [11], the “MIC B. pseudomallei Human/Blood/OH” value was 30 µg/mL (≈ 69.5 µM). The “MIC F. tularensis SCHU4” value in assay [12] came to 2 µg/mL (≈ 4.63 µM). In addition, the “MIC B. melitensis 16M” value in assay [13] amounted to 2 µg/mL (≈ 4.63 µM). For the same molecule, the “MIC B. anthracis Vollum-1b” value in assay [14] worked out at 6 µg/mL (≈ 13.9 µM). The “MIC E. coli D21f2toIC” value in assay [15] worked out at 0.1 µg/mL (≈ 0.232 µM). The “MIC B. mallei CHN7” value in [16] turned out to be 6 µg/mL (≈ 13.9 µM). For the same molecule, the “MIC S. aureus MRSA BAA-1717” value in [17] came out at 0.8 µg/mL (≈ 1.85 µM). The “MIC S. aureus LRSA NRS120” value in assay [18] was 0.5 µg/mL (≈ 1.16 µM).
